Results as given in US12441718B2, “Selective angiotensin II compounds” (VICORE PHARMA AB, priority 2021, dated 2025).
Where two headings read alike, the source gives them in different places.

Key:
[1] = Metabolic stability in pooled human liver microsomes; assay type: in vitro ADME; conditions: human, pooled human liver microsomes, pooled human liver microsomes 0.5 mg/mL, 1 μM test compound, 37° C., * rows = mean of two runs
In short: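 Pooled human liver microsomes (0.5 mg/mL in PBS) preincubated ±1 mM NADPH at 37° C; test compound added at 10 min to 1 μM final. Samples at 0, 5, 15 and 60 min quenched in acetonitrile, parent quantified by LC-MS/MS against a standard curve (terfenadine internal standard). Initial metabolic rate calculated with and without NADPH.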

CYP2C9 [2] = molecular target: T1, CYP2C9 (Homo sapiens, UniProt P11712); assay: CYP inhibition of C21 found during development; assay type: in vitro ADME; conditions: statement in background
CYP3A4 [3] = molecular target: T2, CYP3A4 (Homo sapiens, UniProt P08684); assay: CYP inhibition of C21 found during development; assay type: in vitro ADME; conditions: statement in background
[4] = Metabolic hydrolysis of C21 found during development; assay type: in vitro ADME; conditions: statement in background
CYP3A4&5 = assay: in vitro; conditions: human, human liver microsomes, probe testosterone;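 further: Read-out is the metabolite generated from the probe substrate, quantified as HPLC-MS/MS peak area once incubation ends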
CYP3A4 [5] = molecular target: T2, CYP3A4; assay: CYP inhibition in human liver microsomes (Eurofins ITEMG232), midazolam substrate; assay type: in vitro ADME; set-up: isoform-specific substrates incubated with human liver microsomes; tissue Eurofins ITEMG232 (protocol number); host or cells: human liver microsomes; conditions: human, probe midazolam, read-out: CYP3A4 midazolam Inh %
CYP2C8 = molecular target: T3, CYP2C8 (Homo sapiens, UniProt P10632); assay: CYP inhibition in human liver microsomes (Eurofins ITEMG232); assay type: in vitro ADME; conditions: human, probe paclitaxel and amodiaquine, substrate paclitaxel and amodiaquine, read-out: CYP2C8 Inh %
T3 construct: isoform-specific substrates incubated with human liver microsomes; tissue Eurofins ITEMG232 (protocol number); host or cells: human liver microsomes
T3 sequence (P10632 1-490): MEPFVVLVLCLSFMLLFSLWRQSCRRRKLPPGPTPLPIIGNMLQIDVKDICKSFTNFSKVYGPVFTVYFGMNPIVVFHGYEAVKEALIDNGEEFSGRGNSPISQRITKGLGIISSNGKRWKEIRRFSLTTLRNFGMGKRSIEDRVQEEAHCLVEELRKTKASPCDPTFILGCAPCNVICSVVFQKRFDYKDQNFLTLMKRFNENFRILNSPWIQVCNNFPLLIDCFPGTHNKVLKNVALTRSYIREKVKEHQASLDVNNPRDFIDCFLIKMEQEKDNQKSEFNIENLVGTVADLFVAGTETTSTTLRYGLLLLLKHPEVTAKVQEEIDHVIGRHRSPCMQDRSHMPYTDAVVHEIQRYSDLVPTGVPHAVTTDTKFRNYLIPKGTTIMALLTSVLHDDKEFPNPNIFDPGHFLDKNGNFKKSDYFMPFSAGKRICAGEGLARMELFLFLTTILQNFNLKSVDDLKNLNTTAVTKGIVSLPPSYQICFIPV

CYP2C19 = molecular target: T4, CYP2C19 (Homo sapiens, UniProt P33261); assay: as above; assay type: in vitro ADME; conditions: human, probe omeprazole, substrate omeprazole, read-out: CYP2C19 Inh %
T4 construct: isoform-specific substrates incubated with human liver microsomes; tissue Eurofins ITEMG232 (protocol number); host or cells: human liver microsomes

[6] = molecular target: T5, human recombinant AT1 receptor (Homo sapiens, UniProt P30556); assay: Binding to AT1 receptor, radiometric scintillation assay (Eurofins ITEM24); conditions: test compounds at 1 and 10 μM, ligand 125I(sar1,Ile8)-AT-II; * rows = mean of runs
T5 construct: purchased Eurofins ITEM24 (protocol number)
T5 sequence (P30556 1-359): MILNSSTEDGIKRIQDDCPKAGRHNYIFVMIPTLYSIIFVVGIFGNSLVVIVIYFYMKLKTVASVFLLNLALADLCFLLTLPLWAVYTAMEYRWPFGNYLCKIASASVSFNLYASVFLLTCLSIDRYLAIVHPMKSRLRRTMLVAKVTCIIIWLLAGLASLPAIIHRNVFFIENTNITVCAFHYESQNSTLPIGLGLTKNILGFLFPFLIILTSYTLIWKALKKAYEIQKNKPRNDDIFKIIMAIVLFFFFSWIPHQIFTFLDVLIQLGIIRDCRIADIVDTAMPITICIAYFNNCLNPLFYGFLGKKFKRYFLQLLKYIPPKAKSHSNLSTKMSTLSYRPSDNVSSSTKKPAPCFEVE

CYP2B6 = molecular target: T6, CYP2B6 (Homo sapiens, UniProt P20813); assay: CYP inhibition in human liver microsomes (Eurofins ITEMG232); assay type: in vitro ADME; conditions: probe bupropion, substrate bupropion, read-out: CYP2B6 Inh %
T6 construct: isoform-specific substrates incubated with human liver microsomes; tissue Eurofins ITEMG232 (protocol number); host or cells: human liver microsomes
T6 sequence (P20813 1-491): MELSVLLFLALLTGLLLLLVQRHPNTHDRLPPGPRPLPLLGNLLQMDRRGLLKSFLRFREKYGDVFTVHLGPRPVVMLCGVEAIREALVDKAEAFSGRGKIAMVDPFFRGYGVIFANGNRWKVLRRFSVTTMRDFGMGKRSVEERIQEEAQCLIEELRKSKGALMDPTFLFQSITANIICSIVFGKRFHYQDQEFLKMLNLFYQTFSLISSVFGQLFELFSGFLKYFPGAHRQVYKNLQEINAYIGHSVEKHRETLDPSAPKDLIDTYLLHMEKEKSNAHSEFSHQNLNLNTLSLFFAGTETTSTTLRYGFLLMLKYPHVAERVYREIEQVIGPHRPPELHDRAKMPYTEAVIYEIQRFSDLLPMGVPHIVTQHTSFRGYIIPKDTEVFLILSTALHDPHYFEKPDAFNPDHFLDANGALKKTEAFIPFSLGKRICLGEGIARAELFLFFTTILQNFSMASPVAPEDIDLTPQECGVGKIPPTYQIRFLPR

CYP2D6 = molecular target: T7, CYP2D6 (Homo sapiens, UniProt P10635); assay: as above; assay type: in vitro ADME; conditions: probe dextromethorphan, substrate dextromethorphan, read-out: CYP2D6 Inh %
T7 construct: isoform-specific substrates incubated with human liver microsomes; tissue Eurofins ITEMG232 (protocol number); host or cells: human liver microsomes

[7] = molecular target: T8, human recombinant AT2 receptor (Homo sapiens, UniProt P50052); assay: Binding to AT2 receptor, radiometric scintillation assay (Eurofins ITEM26); conditions: ligand 125I CGP 42112A, * rows = mean of runs; for Ki: seven-point dose-response curve; for IC50: test compounds at 1, 10, 100 and 1000 nM, read-out: AT2 GraFit IC50
T8 construct: purchased Eurofins ITEM26 (protocol number)
T8 sequence (P50052 1-363): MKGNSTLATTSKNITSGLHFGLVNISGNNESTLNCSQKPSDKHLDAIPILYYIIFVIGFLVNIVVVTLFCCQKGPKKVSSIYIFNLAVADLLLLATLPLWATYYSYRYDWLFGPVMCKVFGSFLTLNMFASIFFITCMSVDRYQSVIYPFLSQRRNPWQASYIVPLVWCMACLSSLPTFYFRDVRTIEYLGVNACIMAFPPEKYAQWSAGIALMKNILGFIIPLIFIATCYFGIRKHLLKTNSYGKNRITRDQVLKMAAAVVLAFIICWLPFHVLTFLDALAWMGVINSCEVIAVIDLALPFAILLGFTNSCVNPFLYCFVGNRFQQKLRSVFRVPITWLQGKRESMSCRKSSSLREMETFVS

CYP2C9 [8] = molecular target: T1, CYP2C9; assay: CYP inhibition in human liver microsomes (Eurofins ITEMG232); assay type: in vitro ADME; set-up: isoform-specific substrates incubated with human liver microsomes; tissue Eurofins ITEMG232 (protocol number); host or cells: human liver microsomes; conditions: human, probe diclofenac, substrate diclofenac, read-out: CYP2C9 Inh %
CYP1A2 = molecular target: T9, CYP1A2 (Homo sapiens, UniProt P05177); assay: in vitro; assay type: in vitro ADME; conditions: human, microsomes, human liver microsomes, substrate phenacetin, read-out: CYP1A2 Inh %
T9 construct: isoform-specific substrates incubated with human liver microsomes; tissue Eurofins ITEMG232 (protocol number); host or cells: human liver microsomes
Method: The following substrates were used; CYP1A phenacetin, CYP2B36 bupropion, CYP2C8 paclitaxel and amodiaquine, CYP2C9 diclofenac, CYP2C19 omeprazole, CYP2D6 dextromethorphan, CYP3A midazolam and testosterone.
At the end of the incubation, the formation of metabolite was monitored by HPLC-MS/MS as the peak area response.

[9] = without NADPH, read-out: T1/2, no NaDPH
[10] = with 1 mM NADPH, read-out: T1/2, + NaDPH

T4 sequence (P33261 whole entry, canonical isoform): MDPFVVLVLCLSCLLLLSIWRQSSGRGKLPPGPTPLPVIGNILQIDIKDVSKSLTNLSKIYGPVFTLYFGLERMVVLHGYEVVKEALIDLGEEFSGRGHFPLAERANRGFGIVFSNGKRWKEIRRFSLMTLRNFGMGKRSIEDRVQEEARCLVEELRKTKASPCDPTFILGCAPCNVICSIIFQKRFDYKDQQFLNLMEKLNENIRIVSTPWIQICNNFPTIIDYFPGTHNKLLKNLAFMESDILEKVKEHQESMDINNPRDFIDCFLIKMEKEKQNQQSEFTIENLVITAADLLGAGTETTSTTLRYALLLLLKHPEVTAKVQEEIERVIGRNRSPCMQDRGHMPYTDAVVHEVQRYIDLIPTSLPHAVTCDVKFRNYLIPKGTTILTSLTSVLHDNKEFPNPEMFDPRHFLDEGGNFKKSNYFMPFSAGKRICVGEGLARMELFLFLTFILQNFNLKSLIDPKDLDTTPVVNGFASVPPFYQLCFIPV
T1 sequence (P11712 whole entry): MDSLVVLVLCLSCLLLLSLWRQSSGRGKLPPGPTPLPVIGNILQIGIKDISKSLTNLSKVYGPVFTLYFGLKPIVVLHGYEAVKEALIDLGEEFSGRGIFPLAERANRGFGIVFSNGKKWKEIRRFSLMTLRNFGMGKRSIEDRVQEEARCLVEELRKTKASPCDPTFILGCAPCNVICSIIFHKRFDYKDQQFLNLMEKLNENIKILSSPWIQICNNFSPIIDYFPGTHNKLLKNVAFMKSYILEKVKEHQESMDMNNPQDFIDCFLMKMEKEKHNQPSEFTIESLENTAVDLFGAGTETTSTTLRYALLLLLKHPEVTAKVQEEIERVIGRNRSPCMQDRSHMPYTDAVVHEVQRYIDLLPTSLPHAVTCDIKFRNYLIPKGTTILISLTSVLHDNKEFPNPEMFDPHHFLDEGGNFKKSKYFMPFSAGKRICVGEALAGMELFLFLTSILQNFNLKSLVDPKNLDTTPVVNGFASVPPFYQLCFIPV
T7 sequence (P10635 whole entry, canonical isoform): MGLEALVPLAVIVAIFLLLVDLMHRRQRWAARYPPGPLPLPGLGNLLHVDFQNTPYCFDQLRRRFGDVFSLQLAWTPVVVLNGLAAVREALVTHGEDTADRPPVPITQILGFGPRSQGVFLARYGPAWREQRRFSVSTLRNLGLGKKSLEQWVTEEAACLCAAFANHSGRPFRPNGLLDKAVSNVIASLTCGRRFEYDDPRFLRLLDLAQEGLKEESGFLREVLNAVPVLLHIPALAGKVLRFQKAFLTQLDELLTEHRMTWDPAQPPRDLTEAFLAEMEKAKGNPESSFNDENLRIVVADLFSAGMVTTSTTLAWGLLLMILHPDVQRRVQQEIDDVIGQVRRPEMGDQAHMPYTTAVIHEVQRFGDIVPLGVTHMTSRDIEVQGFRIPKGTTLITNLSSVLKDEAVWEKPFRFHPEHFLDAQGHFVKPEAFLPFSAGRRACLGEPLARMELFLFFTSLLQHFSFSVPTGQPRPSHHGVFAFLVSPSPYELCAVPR
T2 sequence (P08684 whole entry): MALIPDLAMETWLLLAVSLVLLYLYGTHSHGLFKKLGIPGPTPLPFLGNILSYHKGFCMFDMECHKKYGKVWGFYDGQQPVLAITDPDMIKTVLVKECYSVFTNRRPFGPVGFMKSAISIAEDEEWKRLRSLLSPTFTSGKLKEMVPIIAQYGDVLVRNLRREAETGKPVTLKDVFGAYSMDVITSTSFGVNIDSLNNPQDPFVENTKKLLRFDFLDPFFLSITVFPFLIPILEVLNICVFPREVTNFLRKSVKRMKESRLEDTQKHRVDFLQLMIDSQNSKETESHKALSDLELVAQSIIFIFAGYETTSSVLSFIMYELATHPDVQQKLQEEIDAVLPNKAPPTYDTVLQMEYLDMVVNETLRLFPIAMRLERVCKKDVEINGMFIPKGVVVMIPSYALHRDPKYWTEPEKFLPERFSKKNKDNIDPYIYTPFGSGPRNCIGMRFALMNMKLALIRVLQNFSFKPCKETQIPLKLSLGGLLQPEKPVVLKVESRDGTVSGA
T9 sequence (P05177 whole entry, canonical isoform): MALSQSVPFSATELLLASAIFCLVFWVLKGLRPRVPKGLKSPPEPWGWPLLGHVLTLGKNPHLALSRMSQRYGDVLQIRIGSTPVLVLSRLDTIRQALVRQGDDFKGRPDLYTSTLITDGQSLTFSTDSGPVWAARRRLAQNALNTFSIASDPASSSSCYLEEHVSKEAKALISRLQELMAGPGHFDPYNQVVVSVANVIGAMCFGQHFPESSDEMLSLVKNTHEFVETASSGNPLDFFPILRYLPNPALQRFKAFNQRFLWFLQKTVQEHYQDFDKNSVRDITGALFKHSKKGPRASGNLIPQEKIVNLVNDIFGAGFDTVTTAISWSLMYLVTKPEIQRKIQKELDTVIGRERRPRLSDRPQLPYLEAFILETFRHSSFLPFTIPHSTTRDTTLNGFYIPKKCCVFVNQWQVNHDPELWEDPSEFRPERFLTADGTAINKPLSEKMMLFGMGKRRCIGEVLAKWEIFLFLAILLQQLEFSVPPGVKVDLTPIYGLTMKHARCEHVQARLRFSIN

| SMILES | half-life at 1 μM [1, 9] | inhibition of CYP 2C9 (CYP2C9 [2]) | inhibition of CYP 3A4 (CYP3A4 [3]) | metabolic hydrolysis [4] | inhibition at 10 µM (CYP3A4&5) | half-life at 1 μM [1, 10] | inhibition at 10 µM (CYP3A4 [5]) | inhibition at 10 µM (CYP2C8) | inhibition at 10 µM (CYP2C19) | IC50 [6] | inhibition at 10 µM (CYP2B6) | inhibition at 10 µM (CYP2D6) | Ki [7] | IC50 [7] | inhibition at 10 µM (CYP2C9 [8]) | inhibition at 10 µM (CYP1A2) |
| --- | --- | --- | --- | --- | --- | --- | --- | --- | --- | --- | --- | --- | --- | --- | --- | --- |
| CCCCOC(=O)NS(=O)(=O)c1sc(CC(C)C)cc1-c1ccc(Cn2ccnc2)cc1 [Example C21, N-butyloxycarbonyl-3-(4-imidazol-1-ylmethylphenyl)-5-isobutylthiophene-2-sulfon-amide] | 0.5 h | potent inhibitor | potent inhibitor | rapidly hydrolysed to an inactive sulfonamide metabolite | 94% |  |  |  |  |  |  |  |  |  |  |  |
| CC(C)Cc1ccc(S(=O)(=O)Nc2ncccn2)c(-c2ccc(Cn3ccnc3)c(F)c2)c1 [Example 30, 4′-((1H-Imidazol-1-yl)methyl)-3′-fluoro-5-isobutyl-N-(pyrimidin-2-yl)-[1,1′-biphenyl]-2-sulfonamide] | > 1 h |  |  |  | 92.2% | 1 h | 94% | 62.4% | 95.7% | 0.125 µM | 38.4% | 50.9% | 0.0005 µM | 0.00101 µM | 98% | 60.2% |
| COc1ncncc1NS(=O)(=O)c1ccc(CC(C)C)cc1-c1ccc(Cn2ccnc2C(C)(C)C)c(F)c1 [Example 22, 4′-((2-(tert-Butyl)-1H-imidazol-1-yl)methyl)-3′-fluoro-5-isobutyl-N-(4-methoxy-pyrimidin-5-yl)-[1,1′-biphenyl]-2-sulfonamide] | > 1 h |  |  |  | 97% | 0.133 h | 98.2% | 58.1% | 85.7% | 58.7 µM | 20.5% | 4% | 0.071 µM | 0.142 µM | 94.7% | -1.1% |
| CC(C)Cc1ccc(S(=O)(=O)Nc2ncccn2)c(-c2ccc(Cn3ccnc3C(C)(C)C)c(F)c2)c1 [Example 7, 4′-((2-(tert-Butyl)-1H-imidazol-1-yl)methyl)-3′-fluoro-5-isobutyl-N-(pyrimidin-2-yl)-[1,1′-biphenyl]-2-sulfonamide] | > 1 h |  |  |  | 3.7% | 0.9 h | -12.5% | 78% | 41% | 15 µM | 38.9% | 15% | 0.00127 µM | 0.00254 µM | 41.3% | 45.9% |
| CC(C)Cc1ccc(S(=O)(=O)Nc2ncc(F)cn2)c(-c2ccc(Cn3ccnc3C(C)(C)C)cc2)c1 [Example 3, 4′-((2-(tert-Butyl)-1H-imidazol-1-yl)methyl)-N-(5-fluoropyrimidin-2-yl)-5-isobutyl-[1,1′-biphenyl]-2-sulfonamide] | > 1 h |  |  |  | 26.8% | > 1 h | 49.8% | 89.2% | 36.9% | 14.3 µM | -0.5% | 17.2% | 0.0024 µM | 0.00479 µM | 4% | -33.8% |
